Columns and labels:
DNA polymerase I = molecular target: T1, DNA polymerase I (Escherichia coli, UniProt P00582); assay: DPE-PCR assay with purified DNA polymerase, ddCTP termination; format: biochemical; conditions: dNTP mix with 50 μM ddCTP instead of 50 μM dCTP; 2×10^−9 U DNA polymerase I; 37° C., 20 minutes
T1 construct: purchased New England Biolabs M0209
Description: DNA Pol I (NEB cat #M0209L), Klenow (NEB cat #M0210S) and Klenow exo(−) (NEB cat #M0212S) were diluted to the indicated U/μL stock in Tris EDTA (T.E.) pH 8.0. To begin, 2 μL of DNA polymerase stock at each concentration were placed into a 50 μL polymerase assay mixture containing the following components: 50 μM dNTP, 20 mM Tris pH 8.0, 10 mM ammonium sulfate, 10 mM potassium chloride, 2 mM magnesium sulfate, 1% BSA, 0.1% Triton, 0.1% Tween, and 0.001 μM pre-annealed DNA substrate. Reactions were vortexed briefly and placed at 37° C. for 20 minutes. After 20 minutes, 3 μL of each reaction were immediately placed into a quantitative PCR (qPCR) reaction. Detection by qPCR
The qPCR reaction master mix was prepared using the following components: LightCycler 480 Master Mix (Roche cat #04707494001), 333 nM of each primer, 166 nM Target probe (FAM), 166 nM internal control probe (TxRed), and 1.2 U of UDG (Bioline cat #BIO-20744). As a tool to monitor PCR inhibition, each qPCR reaction also included 40 copies of competitive internal control DNA. […]

[1] = tested on: E. coli-derived DNA polymerase activity; assay: Bead lysis-coupled DPE-PCR, ddCTP termination of microbial DNA polymerase (E. coli); format: biochemical, Escherichia coli; conditions: reaction mix with 50 μM ddCTP instead of dCTP; crude bead mill lysate
Description: The qPCR reaction master mix was prepared using the following components: LightCycler 480 Master Mix (Roche cat #04707494001), 333 nM of each primer, 166 nM Target probe (FAM), 166 nM internal control probe (TxRed), and 1.2 U of UDG (Bioline cat #BIO-20744). As a tool to monitor PCR inhibition, each qPCR reaction also included 40 copies of competitive internal control DNA. For each qPCR reaction, 3 μL of DNA polymerase reaction were added to 27 μL of master mix and a two-step qPCR was run on a SmartCycler (Cepheid, Sunnyvale Calif.) as follows: Initial incubation of 40° C. for 10 minutes and 50° C. for 10 minutes and at 95° C. for 5 minutes (to activate Taq), followed by 45 cycles of 5 s denaturation at 95° C. and 20 s annealing/extension at 65° C. Cycle threshold (Ct) values were generated automatically by the SmartCycler software using 2nd derivative analysis of the emerging qPCR curves.
S. aureus and E. coli cultures were grown to an OD600 of 1.0±0.2 (approximately 1×10^9 cfu/mL.) For each organism, 1 mL of culture was pelleted and washed three times in T.E. Bacterial suspensions were serially diluted in T.E., and 5 μL of each stock were added to bead lysis-reactions containing 50 μL of lysis-reaction buffer. […]

T1 sequence (P00582 whole entry): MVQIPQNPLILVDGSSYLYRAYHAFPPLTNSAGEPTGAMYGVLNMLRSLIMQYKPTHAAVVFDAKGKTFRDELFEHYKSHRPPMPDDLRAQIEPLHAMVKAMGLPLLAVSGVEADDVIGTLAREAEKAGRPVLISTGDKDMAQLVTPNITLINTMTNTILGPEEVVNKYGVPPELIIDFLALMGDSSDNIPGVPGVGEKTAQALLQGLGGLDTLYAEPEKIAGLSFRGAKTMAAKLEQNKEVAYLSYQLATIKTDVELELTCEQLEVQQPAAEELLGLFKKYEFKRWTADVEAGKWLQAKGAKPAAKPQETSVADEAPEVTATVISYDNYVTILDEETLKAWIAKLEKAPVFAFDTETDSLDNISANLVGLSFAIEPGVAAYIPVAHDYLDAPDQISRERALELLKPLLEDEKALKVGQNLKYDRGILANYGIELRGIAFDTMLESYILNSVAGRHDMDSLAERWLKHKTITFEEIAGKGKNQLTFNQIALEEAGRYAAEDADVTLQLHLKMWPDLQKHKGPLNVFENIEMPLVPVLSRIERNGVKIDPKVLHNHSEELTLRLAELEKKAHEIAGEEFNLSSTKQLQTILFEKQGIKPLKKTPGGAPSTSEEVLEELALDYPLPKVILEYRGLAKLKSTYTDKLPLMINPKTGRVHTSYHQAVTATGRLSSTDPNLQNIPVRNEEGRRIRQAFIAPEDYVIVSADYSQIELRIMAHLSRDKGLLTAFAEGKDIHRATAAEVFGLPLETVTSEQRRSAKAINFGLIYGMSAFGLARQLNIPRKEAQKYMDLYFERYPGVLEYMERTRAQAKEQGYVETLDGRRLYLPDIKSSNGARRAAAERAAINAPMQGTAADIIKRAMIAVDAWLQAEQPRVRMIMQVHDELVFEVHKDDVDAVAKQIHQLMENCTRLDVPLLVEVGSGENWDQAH

`Nc1ccn([C@H]2CC[C@@H](COP(=O)(O)OP(=O)(O)OP(=O)(O)O)O2)c(=O)n1` [ddCTP, dideoxyCTP] was tested, and the “DPE-PCR assay signal (DNA polymerase extension activity)” value (DNA polymerase I) was “eliminates signal generated by DNA polymerase I” and the “DPE-PCR signal derived from E. coli cfu spikes” value [1] was “blocked the generation of signal derived from E. coli cfu spikes”.
